Patent US5624894A, “Brain-enhanced delivery of neuroactive peptides by sequential metabolism” (University of Florida, priority 1995, dated 1997)
Square brackets hold non-standard residues; d marks the D form. Peptide text beside a SMILES is read from it. * marks the point of attachment. O(cholesteryl) = CC(C)CCC[C@@H](C)[C@H]1CC[C@H]2[C@@H]3CC=C4C[C@@H](O*)CC[C@]4(C)[C@H]3CC[C@]12C; Nicotinoyl(1-Me-1,4-dihydro) = CN1C=CCC(C(=O)*)=C1

System: Sprague-Dawley rats
Assay: Rat tail flick test (analgesia) after i.v. administration
Type: in vivo
Set-up: Area under the latency change vs. time curve, AUC0-240 min: unit not given here
Details: for Tail flick latency period / Maximum tail flick latency: cutoff 60 s; for Tail flick latency period / Maximum tail flick latency / Area under the latency change vs. time curve, AUC0-240 min: mean ± S.E.; for Number of Animals with maximum tail flick latency >60 seconds: cutoff latency 60 seconds
Protocol: Sprague-Dawley rats weighing 200-250 g were used. Drugs were dissolved in the vehicle consisting of DMSO, ethanol and 50% (w/w) 2-hydroxypropyl-β-cyclodextrin at a ratio of 1:2:1. A-CDS at a dose of 5 or 10 mg/2 ml/kg was injected in the animals through the tail vein. Vehicle only, or an equimolar dose (5 mg/kg) of DADLE (equimolar to 10 mg/kg of A-CDS) was also administered to compare the pharmacological activities. Tail flick latency, an index of spinal cord mediated analgesia, was measured before (control) and at 5 minutes, 15 minutes, 30 minutes, 1 hour, 2 hours, 3 hours, 4 hours, 5 hours and 6 hours after drug administration. The instrument used was a model 33 tail flick analgesia meter (lite, Inc., Landing, N.J.) set with the beam dial at 90 and the sensitivity at 8. Time between presentation of a focused beam of light and the reflexive removal of the tail from the stimulus was defined as the tail flick latency period, and the tail flick latency difference between each time point and control was defined as the change in tail flick latency. In the absence of response, a cut-off period of 1 minute was used. Each drug at each dose was tested in ten animals. Results are presented in Tables 5-8 below and in FIGS. 3-5.
Another representative chemical delivery system (AA-CDS) of the invention for the enkephalin analog DADLE, namely compound (69) of EXAMPLE 69, which has an alanine-alanine spacer, was studied in the same rat tail flick test procedure described above to determine its analgesic effects compared to DADLE itself. AA-CDS was tested at a dose of 10 mg/2 ml/kg, which is equimolar to 5 mg/kg of DADLE, and compared with vehicle and 5mg/kg of DADLE exactly as described above. Each dose was tested in ten animals.

`CC(C)CCC[C@@H](C)[C@H]1CC[C@H]2[C@@H]3CC=C4C[C@@H](OC(=O)[C@@H](CC(C)C)NC(=O)[C@H](Cc5ccccc5)NC(=O)CNC(=O)[C@@H](C)NC(=O)[C@H](Cc5ccc(O)cc5)NC(=O)[C@H](C)NC(=O)C5=CN(C)C=CC5)CC[C@]4(C)[C@H]3CC[C@]12C` [Compound (64), 1,4-Dihydrotrigonellyl-Ala-Tyr-D-Ala-Gly-Phe-D-Leu-Cholesteryl Ester] ({Nicotinoyl(1-Me-1,4-dihydro)}-AY[dA]GF[dL]-{O(cholesteryl)}) was tested, and the “Number of Animals with maximum tail flick latency 20-40 seconds” value (5 mg/kg i.v.) was 2, the “Number of Animals with maximum tail flick latency 40-60 seconds” value (5 mg/kg i.v.) was 2 and the “Number of Animals with maximum tail flick latency <20 seconds” value (5 mg/kg i.v.) was 4. For the same molecule, the “Tail flick latency period” value (5 mg/kg i.v., 0 min (prior to drug administration)) was 7.24 ± 0.58 s, the “Tail flick latency period” value (5 mg/kg i.v., 5 min) was 25.95 ± 5.64 s and the “Tail flick latency period” value (5 mg/kg i.v., 15 min) was 20.63 ± 5.40 s. For the same molecule, the “Tail flick latency period” value (5 mg/kg i.v., 30 min) was 14.22 ± 2.22 s, the “Tail flick latency period” value (5 mg/kg i.v., 60 min) was 13.00 ± 1.97 s and the “Tail flick latency period” value (5 mg/kg i.v., 120 min) was 18.37 ± 5.10 s. For the same molecule, the “Tail flick latency period” value (5 mg/kg i.v., 180 min) was 16.63 ± 2.02 s, the “Tail flick latency period” value (5 mg/kg i.v., 240 min) was 20.28 ± 5.58 s and the “Tail flick latency period” value (5 mg/kg i.v., 300 min) was 17.84 ± 3.42 s. For the same molecule, the “Maximum tail flick latency” value (5 mg/kg i.v.) was 33.05 ± 5.99 s, the “Number of Animals with maximum tail flick latency >60 seconds” value (5 mg/kg i.v.) was 2 and the “Area under the latency change vs. time curve, AUC0-240 min” value (5 mg/kg i.v.) was 2528.70 ± 663.78. The “Number of Animals with maximum tail flick latency 20-40 seconds” value (10 mg/kg i.v.) was 1, the “Number of Animals with maximum tail flick latency 40-60 seconds” value (10 mg/kg i.v.) was 3 and the “Number of Animals with maximum tail flick latency <20 seconds” value (10 mg/kg i.v.) was 0. The “Tail flick latency period” value (10 mg/kg i.v., 0 min (prior to drug administration)) was 9.21 ± 0.53 s, the “Tail flick latency period” value (10 mg/kg i.v., 5 min) was 49.67 ± 4.67 s and the “Tail flick latency period” value (10 mg/kg i.v., 15 min) was 40.71 ± 7.00 s. The “Tail flick latency period” value (10 mg/kg i.v., 30 min) was 36.03 ± 6.34 s, the “Tail flick latency period” value (10 mg/kg i.v., 60 min) was 32.59 ± 6.63 s and the “Tail flick latency period” value (10 mg/kg i.v., 120 min) was 26.28 ± 4.56 s. For the same molecule, the “Tail flick latency period” value (10 mg/kg i.v., 180 min) was 28.50 ± 4.40 s, the “Tail flick latency period” value (10 mg/kg i.v., 240 min) was 28.30 ± 4.68 s and the “Tail flick latency period” value (10 mg/kg i.v., 300 min) was 30.15 ± 3.81 s. For the same molecule, the “Maximum tail flick latency” value (10 mg/kg i.v.) was 51.94 ± 3.83 s, the “Number of Animals with maximum tail flick latency >60 seconds” value (10 mg/kg i.v.) was 6 and the “Area under the latency change vs. time curve, AUC0-240 min” value (10 mg/kg i.v.) was 4897.80 ± 1011.63. For the same molecule, the “analgesic effect in tail flick test (in words)” value (i.v., compared to control) was “significant and prolonged increase in the latency of the tail-flick response”.
